We go through one compound from US20200069644A1, “NOVEL USE OF A FORMYL PEPTIDE RECEPTOR 2/ LIPOXIN A4 RECEPTOR (FPR2/ALX) AGONIST FOR TREATMENT OF HEART FAILURE” (BRISTOL- MYERS SQUIBB COMPANY, priority 2017, published 2020).

One assay has as its target T1, Mouse FPR2 (Mus musculus, UniProt O88536).
T1 construct: expressed in transfected cells; host or cells: CHO-A12
T1 sequence (O88536 1-351): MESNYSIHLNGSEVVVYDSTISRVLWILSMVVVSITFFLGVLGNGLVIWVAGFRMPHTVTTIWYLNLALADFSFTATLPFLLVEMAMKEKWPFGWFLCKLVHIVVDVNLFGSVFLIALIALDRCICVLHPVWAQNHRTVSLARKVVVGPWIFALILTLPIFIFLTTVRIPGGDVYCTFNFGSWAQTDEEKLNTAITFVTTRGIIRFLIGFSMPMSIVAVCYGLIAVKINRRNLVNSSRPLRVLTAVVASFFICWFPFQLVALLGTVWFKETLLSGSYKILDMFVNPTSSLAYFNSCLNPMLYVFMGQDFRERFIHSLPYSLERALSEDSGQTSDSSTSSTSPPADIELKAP
As to the kind of experiment: cAMP inhibition, mouse FPR2/CHO-A12. In kind it is cell-based. Here is the method: [Worded in the source for another species; this species is reported under the same test.] A mixture of forskolin (5 μM final for FPR2 or 10 μM final for FPR1) and IBMX (200 μM final) were added to 384-well Proxiplates (Perkin-Elmer) pre-dotted with test compounds in DMSO (1% final) at final concentrations in the range of 0.1 nM to 10 μM. CHO overexpressing human FPR1 or human FPR2 receptors were cultured in F-12 (Ham's) medium supplemented with 10% qualified FBS, 250 μg/ml zeocin and 300 μg/ml hygromycin (Life Technologies). Reactions were initiated by adding 2,000 human FPR2 cells per well or 4,000 human FPR1 cells per well in Dulbecco's PBS (with calcium and magnesium) (Life Technologies) supplemented with 0.1% BSA (Perkin-Elmer). The reaction mixtures were incubated for 30 min at room temperature. The level of intracellular cAMP was determined using the HTRF HiRange cAMP assay reagent kit (Cisbio) according to manufacturer's instruction. Solutions of cryptate conjugated anti-cAMP and d2 flurorophore-labelled cAMP were made in a supplied lysis buffer separately. […] After a 1 h room temperature incubation, time-resolved fluorescence intensity was measured using the Envision (Perkin-Elmer) at 400 nm excitation and dual emission at 590 nm and 665 nm. […] The potency and activity of Compound 1 to inhibit cAMP production was then determined by fitting to a 4-parametric logistic equation from a plot of cAMP level versus compound concentrations. […]

In assay [1] the test system is myocardial infarction in rats. As to the kind of experiment: Rat model of permanent coronary artery occlusion, 6 weeks. In kind it is in vivo. Here is the method:
In a second model of myocardial infarction, permanent coronary artery occlusion was carried out in rats using a ligature placed around the left anterior descending artery to induce myocardial infarction. Treatment with orally-administered Compound 1 (0.01, 0.1, 1, and 10 mg/kg, QD) or dosing solution without compound (QD, referred to as vehicle) was initiated 48 hours following myocardial infarction. Rats subjected to thoracotomy but not infarcted were included as surgical “sham” controls. Rats were evaluated 6 weeks following myocardial infarction to assess structure/function relationships. Hearts were removed from rats for histological processing to measure infarct wall thickness and collagen composition. Echocardiography was carried out to evaluate cardiac function.
The effects of Compound 1 on left ventricle and infarct scar remodeling were evaluated in a rat model of permanent coronary artery occlusion. […] In addition, the effect of Compound 1 on cardiac function was measured by echocardiography to assess structure/function relationships. The structure of the myocardial wall was measured histologically. […]
Echocardiography was used to measure cardiac function at the end of the treatment phase. The fraction of blood pumped out of the left ventricle per contraction cycle (i.e., ejection fraction) was determined using M-mode echocardiography. […]

pEC50: −log10 of the molar value.

As a reminder, the pEC50 is the negative decadic logarithm of the EC50, by convention in mol/L. Lower therefore signals a large EC50. On to `COc1cc(F)c([C@@H]2CNC(=O)[C@H]2NC(=O)Nc2ccccc2)c(F)c1` [Compound 1, 1-((3S,4R)-4-(2,6-difluoro-4-methoxyphenyl)-2-oxopyrrolidin-3-yl)-3-phenylurea], for which the “selectivity for mouse FPR2 vs. FPR1” value at Mouse FPR2 (CHO cell lines, cAMP) is 640 fold. Besides, the pEC50 on Mouse FPR2 (Mouse FPR2/CHO-A12) was 9.22. For the same compound, the contralateral wall thickness result in assay [1] (0.01-10 mg/kg, between treatment groups or sham) is recorded as “No changes”. Also, the “transmural infarct wall thickness, increase relative to vehicle” value in assay [1] (10 mg/kg PO QD, started 48 h after MI, P<0.01) turned out to be 96%.
